Earlier results on 6 compounds are cited in patent US7750039B2, “Indoles are cannabinoid receptor ligands” (priority 2004, dated 2010).

The test system of one data set is animal models of pain. The settings on record: acute thermal pain, persistent pain, inflammatory pain, neuropathic pain.
In data set [1] the test system is CB1 receptor-mediated CNS side effects. To be noted: at fully efficacious doses.
A further data set has as its system rodent models of pain. To be noted: neuropathic, incisional, chronic and acute inflammatory pain.
Data set [2] has as its system rat formalin model of persistent pain.
The subject of a further data set is microglial. To be noted: in vitro; blocked by SR144528.
Data set [3] deals with CB2 receptor knockout mice.
Data set [4] concerns CB1 receptor knockout mice.
Data set [5] relates to apolipoprotein E knockout mice. The settings on record: low doses, inhibited by SR144528.
Data set [6] deals with ovariectomy-induced bone loss in mice. To be noted: model for post-menopausal osteoporosis.

As for `CN1CCCCC1Cn1cc(C(=O)c2cc([N+](=O)[O-])ccc2I)c2ccccc21` (centres unmarked) [AM-1241], the analgesic efficacy result in the data set on animal models of pain is reported as “robust analgesic efficacy”. The “CB1 receptor-mediated CNS side effects” value in data set [1] was “devoid of typical CB1 receptor-mediated CNS side effects”.

As to `COc1ccc2c(c1)c(CCN1CCOCC1)c(C)n2C(=O)c1cccc(Cl)c1Cl` [GW405833], the “CB1 receptor-mediated CNS side effects” value in data set [1] was “devoid of typical CB1 receptor-mediated CNS side effects”. The “efficacy in pain models” value with rodent models of pain is on record as “efficacious”.

As for `CCCCCCC(C)(C)c1cc(OC)c([C@@H]2C=C(CO)[C@@H]3C[C@H]2C3(C)C)c(OC)c1` [HU-308], the antinociceptive response entry in [2] is reported as “elicits an antinociceptive response”.

As to `CCCC(C)(C)c1ccc2c(c1)OC(C)(C)[C@@H]1CC=C(C)C[C@@H]21` [JWH-133], in the data set with microglial, the “β-amyloid-induced microglial activation and neurotoxicity” value is “abrogated”.

Consider (−)-Δ^9-Tetrahydrocannabinol [Δ^9-THC], for which the immunosuppressive effects entry in data set [3] is given as “absent”. For the same compound, the analgesic efficacy entry in data set [4] was “retains some analgesic efficacy”. In addition, in [5], the “progression of atherosclerotic lesions” value is reported as “slowed the progression of atherosclerotic lesions”.

In the case of SR144528, the osteoclast activity result with osteoclast is recorded as “inhibit osteoclast activity”. In addition, the ovariectomy-induced bone loss entry in data set [6] is recorded as “reverse ovariectomy-induced bone loss”.
